Measurements from ChEMBL document CHEMBL1255543, “On resin amino acid side chain attachment strategy for the head to tail synthesis of new glutamine containing gramicidin-S analogs and their antimicrobial activity” (2010).
Converted amounts (≈) assume the structure as drawn. Peptide text beside a SMILES is read from it.

Columns and labels:
Format in all cases: functional
[1] = test system: Staphylococcus aureus; assay: Antimicrobial activity against methicillin-resistant Staphylococcus aureus ATCC 33591 by broth microdilution assay
[2] = test system: Streptococcus pyogenes; assay: Antimicrobial activity against Streptococcus pyogenes by broth microdilution assay
[3] = test system: Escherichia coli; assay: Antimicrobial activity against Escherichia coli ATCC 25922 by broth microdilution assay
[4] = test system: Enterococcus faecalis; assay: Antimicrobial activity against Enterococcus faecalis ATCC 51299 by broth microdilution assay
[5] = test system: Pseudomonas aeruginosa; assay: Antimicrobial activity against Pseudomonas aeruginosa ATCC 27853 by broth microdilution assay
[6] = test system: Streptococcus agalactiae; assay: Antimicrobial activity against Streptococcus agalactiae COH1 by broth microdilution assay
[7] = Streptococcus pyogenes, read-out: MIC

Structure (SMILES)	MIC [1] [µg/mL]	MIC [2, 7] [µg/mL]	MIC [3] [µg/mL]	MIC [4] [µg/mL]	MIC [5] [µg/mL]	MIC [6] [µg/mL]	MIC [2] [µg/mL]
CC(C)C[C@@H]1NC(=O)[C@H](CCC(N)=O)NC(=O)[C@H](C(C)C)NC(=O)[C@@H]2CCCN2C(=O)[C@@H](Cc2ccc(F)cc2)NC(=O)[C@H](CC(C)C)NC(=O)[C@H](CCC(N)=O)NC(=O)[C@H](C(C)C)NC(=O)[C@@H]2CCCN2C(=O)[C@@H](Cc2ccc(F)cc2)NC1=O	> 100	10 (≈ 8.3 µM)	> 100	> 100	> 100	> 100	–
CC(C)C[C@@H]1NC(=O)[C@H](CCC(N)=O)NC(=O)[C@H](C(C)C)NC(=O)[C@@H]2CCCN2C(=O)[C@@H](Cc2ccc(O)cc2)NC(=O)[C@H](CC(C)C)NC(=O)[C@H](CCC(N)=O)NC(=O)[C@H](C(C)C)NC(=O)[C@@H]2CCCN2C(=O)[C@@H](Cc2ccc(O)cc2)NC1=O	> 100	> 100	> 100	> 100	> 100	> 100	–
CC(C)C[C@@H]1NC(=O)[C@H](CCC(N)=O)NC(=O)[C@H](C(C)C)NC(=O)[C@@H]2CCCN2C(=O)[C@@H](c2ccccc2)NC(=O)[C@H](CC(C)C)NC(=O)[C@H](CCC(N)=O)NC(=O)[C@H](C(C)C)NC(=O)[C@@H]2CCCN2C(=O)[C@@H](c2ccccc2)NC1=O	> 100	10 (≈ 8.76 µM)	> 100	> 100	> 100	> 100	–
CC(C)C[C@@H]1NC(=O)[C@@H]2CCCN2C(=O)[C@H](Cc2ccccc2)NC(=O)[C@H](C(C)C)NC(=O)[C@H](CCC(N)=O)NC(=O)[C@H](C(C)C)NC(=O)[C@@H]2CCCN2C(=O)[C@H](Cc2ccccc2)NC(=O)[C@H](C(C)C)NC(=O)[C@H](CCC(N)=O)NC1=O (stereo in doubt; form 1)	> 100	–	> 100	> 100	> 100	> 100	>100
CC(C)C[C@@H]1NC(=O)[C@H](CCC(N)=O)NC(=O)[C@H](CC(C)C)NC(=O)[C@@H]2CCCN2C(=O)[C@H](Cc2ccccc2)NC(=O)[C@H](CC(C)C)NC(=O)[C@H](CCC(N)=O)NC(=O)[C@H](CC(C)C)NC(=O)[C@@H]2CCCN2C(=O)[C@H](Cc2ccccc2)NC1=O (cyclo(FPLQLFPLQL))	> 100	10 (≈ 8.35 µM)	> 100	> 100	> 100	> 100	–
CC(C)C[C@@H]1NC(=O)[C@H](CCC(N)=O)NC(=O)[C@H](C(C)C)NC(=O)[C@@H]2CCCN2C(=O)[C@H](Cc2ccccc2)NC(=O)[C@H](C(C)C)NC(=O)[C@H](CCC(N)=O)NC(=O)[C@H](CC(C)C)NC(=O)[C@@H]2CCCN2C(=O)[C@H](Cc2ccccc2)NC1=O (cyclo(FPLQVFPVQL))	> 100	10 (≈ 8.55 µM)	> 100	> 100	> 100	> 100	–
CC(C)C[C@@H]1NC(=O)[C@H](CCC(N)=O)NC(=O)[C@H](C(C)C)NC(=O)[C@@H]2CCCN2C(=O)[C@H](Cc2ccccc2)NC(=O)[C@H](C(C)C)NC(=O)[C@H](CCC(N)=O)NC(=O)[C@H](C(C)C)NC(=O)[C@@H]2CCCN2C(=O)[C@H](Cc2ccccc2)NC1=O (cyclo(FPVQLFPVQV))	> 100	10 (≈ 8.65 µM)	> 100	> 100	> 100	> 100	–
CC(C)C[C@@H]1NC(=O)[C@H](CCC(N)=O)NC(=O)[C@H](C(C)C)NC(=O)[C@@H]2CCCN2C(=O)[C@@H](Cc2cccs2)NC(=O)[C@H](CC(C)C)NC(=O)[C@H](CCC(N)=O)NC(=O)[C@H](C(C)C)NC(=O)[C@@H]2CCCN2C(=O)[C@@H](Cc2cccs2)NC1=O	> 100	> 100	> 100	> 100	> 100	> 100	–
CC(C)C[C@@H]1NC(=O)[C@H](CCC(N)=O)NC(=O)[C@H](CC(C)C)NC(=O)[C@@H]2CCCN2C(=O)[C@H](Cc2ccccc2)NC(=O)[C@H](C(C)C)NC(=O)[C@H](CCC(N)=O)NC(=O)[C@H](CC(C)C)NC(=O)[C@@H]2CCCN2C(=O)[C@H](Cc2ccccc2)NC1=O (cyclo(FPLQLFPLQV))	> 100	10 (≈ 8.45 µM)	> 100	> 100	> 100	10 (≈ 8.45 µM)	–
CC(C)[C@@H]1NC(=O)[C@H](CCC(N)=O)NC(=O)[C@H](C(C)C)NC(=O)[C@@H]2CCCN2C(=O)[C@H](Cc2ccccc2)NC(=O)[C@H](C(C)C)NC(=O)[C@H](CCC(N)=O)NC(=O)[C@H](C(C)C)NC(=O)[C@@H]2CCCN2C(=O)[C@H](Cc2ccccc2)NC1=O (cyclo(FPVQVFPVQV))	> 100	> 100	> 100	> 100	> 100	> 100	–
CC(C)C[C@@H]1NC(=O)[C@H](CCC(N)=O)NC(=O)[C@H](C(C)C)NC(=O)[C@@H]2CCCN2C(=O)[C@H](Cc2ccccc2)NC(=O)[C@H](CC(C)C)NC(=O)[C@H](CCC(N)=O)NC(=O)[C@H](C(C)C)NC(=O)[C@@H]2CCCN2C(=O)[C@H](Cc2ccccc2)NC1=O (cyclo(FPVQLFPVQL))	> 100	10 (≈ 8.55 µM)	> 100	> 100	> 100	> 100	–
CC(C)C[C@@H]1NC(=O)[C@H](CCC(N)=O)NC(=O)[C@H](CC(C)C)NC(=O)[C@@H]2CCCN2C(=O)[C@H](Cc2ccccc2)NC(=O)[C@H](C(C)C)NC(=O)[C@H](CCC(N)=O)NC(=O)[C@H](C(C)C)NC(=O)[C@@H]2CCCN2C(=O)[C@H](Cc2ccccc2)NC1=O (cyclo(FPLQLFPVQV))	> 100	10 (≈ 8.55 µM)	> 100	> 100	> 100	> 100	–
CC(C)C[C@@H]1NC(=O)[C@@H]2CCCN2C(=O)[C@H](Cc2ccccc2)NC(=O)[C@H](C(C)C)NC(=O)[C@H](CCC(N)=O)NC(=O)[C@H](C(C)C)NC(=O)[C@@H]2CCCN2C(=O)[C@H](Cc2ccccc2)NC(=O)[C@H](C(C)C)NC(=O)[C@H](CCC(N)=O)NC1=O (stereo in doubt; form 2)	–	–	–	–	–	–	10 (≈ 8.65 µM)
CC(C)C[C@@H]1NC(=O)[C@H](CCC(N)=O)NC(=O)[C@H](C(C)C)NC(=O)[C@@H]2CCCN2C(=O)[C@@H](Cc2ccc(I)cc2)NC(=O)[C@H](CC(C)C)NC(=O)[C@H](CCC(N)=O)NC(=O)[C@H](C(C)C)NC(=O)[C@@H]2CCCN2C(=O)[C@@H](Cc2ccc(I)cc2)NC1=O	> 100	10 (≈ 7.04 µM)	> 100	> 100	> 100	> 100	–
CC(C)C[C@@H]1NC(=O)[C@H](CCC(N)=O)NC(=O)[C@H](C(C)C)NC(=O)[C@@H]2CCCN2C(=O)[C@@H](Cc2c[nH]c3ccccc23)NC(=O)[C@H](CC(C)C)NC(=O)[C@H](CCC(N)=O)NC(=O)[C@H](C(C)C)NC(=O)[C@@H]2CCCN2C(=O)[C@@H](Cc2c[nH]c3ccccc23)NC1=O	> 100	> 100	> 100	> 100	> 100	> 100	–
